# Reference: patent US6451854B1, “α-amino acid phenyl ester derivatives” (Akzo Nobel N.V., priority 1998, dated 2002)
# Counter-ions that a name gives are not always drawn.
# What was measured:
# [1] = target: GABAA receptors; experiment: inhibition of [35S]-TBPS binding to rat whole brain membranes; conditions: concentration required to inhibit 50% of [35S]-TBPS binding
# Excerpt: γ-Aminobutyric acid (GABA) is the major inhibitory neurotransmitter within the central nervous system and it is probable that compounds potentiating the effects of GABA at GABAA receptors will induce anaesthesia (S. A. Zimmerman, M. V. Jones and N. L. Harrison, J. Pharmacol. Exp. Therap. 1994, 270, 987-991; N. P. Franks and W. R. Lieb, Nature 1994, 367, 607-614). Indeed there is compelling evidence that many hypnotics exert their biological activity via modulation of GABAA receptors, including steroids, barbiturates, benzodiazepines and propofol (D. L. Tanelian, P. Kosek, I. Mody and M. B. Maclver, Anesthesiology 1993, 78, 757-776).
# The in vitro effect of the compounds of the invention at GABAA receptors was assessed through determination of their ability to inhibit [^35S]-TBPS ([^35S]-tert-butyl bicyclophosphorothionate) binding to rat whole brain membranes. The concentration of α-amino acid phenyl ester derivative required to inhibit 50% of binding of [^35S]-TBPS was determined. These in vitro experiments were carried out as described in detail by Anderson et al., J.Med.Chem. 1997, 40, 1668-1681.
# [2] = system: mice; experiment: hypnotic activity: loss of righting reflex after intravenous administration in mice; type: in vivo; conditions: Mus musculus, iv, dose causing loss of righting reflex for minimum 30 seconds in 50% of mice, intravenous injection over 10 seconds; read-out: HD50 (the source's name)
# Protocol: The hypnotic potency of the α-amino acid phenyl ester derivatives of the invention was determined upon their intravenous administration in mice. The dose required to cause a loss of righting reflex for a minimum period of 30 seconds in 50% of treated mice after intravenous injection over 10 seconds was determined. This dose is termed the HD50 (hypnotic dose50) and is expressed in μmol.kg^−1.
Compound,melting point [°C],IC50 [1] [µM],ED50 [2] [µmol/kg]
"COCCN(CCOC)C(C)C(=O)Oc1c(OC)cccc1OC (racemic) (as salt: hydrochloride) [Example 7f, (±)-2-[N-bis(2-methoxyethyl)amino]propionic acid, 2,6-dimethoxyphenyl ester hydrochloride (1:1) salt]",114 to 116,,
"CC[C@@H](C(=O)Oc1c(OC)cc(C)cc1OC)N(CCOC)CCOC [Example 7v, S-(−)-2-[N-bis(2-methoxyethyl)amino]butyric acid, 2,6-dimethoxy-4-methylphenyl ester hydrochloride (1:1) salt]",,14,35
"COc1cccc(OC)c1OC(=O)C(C)N1CCOCC1 (centres unmarked) [Reference, 2,6-dimethoxyphenyl 2-morpholinopropionate, reference compound]",,766,139
"CCOCCN(CCOCC)C(C)C(=O)Oc1c(OC)cccc1OC (racemic) [Example 7d, (±)-2-[N-bis(2-ethoxyethyl)amino]propionic acid, 2,6-dimethoxyphenyl ester hydrochloride (1:1) salt]",,≤ 100,68
"CCC(C(=O)Oc1c(OC)cc(OC)cc1OC)N(CCOC)CCOC (racemic) [Example 7t, (±)-2-[N-bis(2-methoxyethyl)amino]butyric acid, 2,4,6-trimethoxyphenyl ester hydrochloride (1:1) salt]",,14,21
"COCCN(CCOC)C(C)C(=O)Oc1c(OC)cc(C)cc1OC (racemic) (as salt: hydrochloride) [Example 7e, (±)-2-[N-bis(2-methoxyethyl)amino]propionic acid, 2,6-dimethoxy-4-methylphenyl ester hydrochloride (1:1) salt]",96 to 97,,
"CC[C@H](C(=O)Oc1c(OC)cc(C)cc1OC)N(CCOC)CCOC [Example 7a, R-(+)-2-[N-bis(2-methoxyethyl)amino]butyric acid, 2,6-dimethoxy-4-methylphenyl ester hydrochloride (1:1) salt]",,22,21
"CCOc1cccc(OCC)c1OC(=O)C(CC)N(CCOC)CCOC (racemic) [Example 7n, (±)-2-[N-bis(2-methoxyethyl)amino]butyric acid, 2,6-diethoxyphenyl ester hydrochloride (1:1) salt]",,20,27
"CCCC(C(=O)Oc1c(OC)cccc1OC)N(CCOC)CCOC (racemic) [Example 7s, (±)-2-[N-bis(2-methoxyethyl)amino]pentanoic acid, 2,6-dimethoxyphenyl ester hydrochloride (1:1) salt]",,4.2,12
"CCC(C(=O)Oc1c(OC)cccc1OC)N(C)Cc1ccccc1 (racemic) [Example 7k, (±)-2-[N-methylbenzylamino]butyric acid, 2,6-dimethoxyphenyl ester hydrochloride (1:1) salt]",,13,40
"CCC(C(=O)Oc1c(OC)cc(C)cc1OC)N(CCOC)CCOC (racemic) [Example 7b, (±)-2-[N-bis(2-methoxyethyl)amino]butyric acid, 2,6-dimethoxy-4-methylphenyl ester hydrochloride (1:1) salt]",,18,22
